Measured values published in BindingDB's records for doi:10.1124/jpet.104.081539 (Kyowa Hakko Kogyo, 2005).

Tests used:
[1] = molecular target: D(2) dopamine receptor (Homo sapiens, UniProt P14416)
[2] = molecular target: Platelet-activating factor receptor (Homo sapiens, UniProt P25105)
[3] = molecular target: T1, Alpha-1A adrenergic receptor (Rattus norvegicus, UniProt P43140)
T1 sequence (P43140 whole entry): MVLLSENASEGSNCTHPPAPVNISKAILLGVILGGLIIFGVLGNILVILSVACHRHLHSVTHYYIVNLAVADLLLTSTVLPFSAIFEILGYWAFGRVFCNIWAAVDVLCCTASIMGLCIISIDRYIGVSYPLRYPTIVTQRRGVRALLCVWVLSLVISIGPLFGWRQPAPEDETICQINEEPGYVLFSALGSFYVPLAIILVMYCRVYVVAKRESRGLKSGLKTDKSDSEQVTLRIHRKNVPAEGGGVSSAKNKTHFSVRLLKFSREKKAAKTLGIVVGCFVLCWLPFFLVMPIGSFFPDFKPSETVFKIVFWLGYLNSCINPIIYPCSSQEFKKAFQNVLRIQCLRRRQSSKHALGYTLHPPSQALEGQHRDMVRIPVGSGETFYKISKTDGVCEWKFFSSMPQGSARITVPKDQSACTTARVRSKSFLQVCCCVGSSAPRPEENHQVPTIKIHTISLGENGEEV

[4] = molecular target: Histamine H2 receptor (Homo sapiens, UniProt P25021)
Histamine H2 receptor, sequence (P25021 whole entry): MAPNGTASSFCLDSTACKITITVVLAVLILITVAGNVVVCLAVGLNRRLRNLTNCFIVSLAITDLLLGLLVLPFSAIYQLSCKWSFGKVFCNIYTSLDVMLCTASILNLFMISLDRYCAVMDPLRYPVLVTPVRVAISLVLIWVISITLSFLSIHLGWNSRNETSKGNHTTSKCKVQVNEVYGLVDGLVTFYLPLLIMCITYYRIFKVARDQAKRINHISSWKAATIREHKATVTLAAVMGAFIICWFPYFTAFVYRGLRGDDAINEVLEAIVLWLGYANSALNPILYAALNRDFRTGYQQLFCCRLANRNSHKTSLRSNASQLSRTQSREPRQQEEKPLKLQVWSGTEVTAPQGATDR

[5] = molecular target: T2, Thromboxane-A synthase (Homo sapiens, UniProt P24557)
T2 sequence (P24557 whole entry): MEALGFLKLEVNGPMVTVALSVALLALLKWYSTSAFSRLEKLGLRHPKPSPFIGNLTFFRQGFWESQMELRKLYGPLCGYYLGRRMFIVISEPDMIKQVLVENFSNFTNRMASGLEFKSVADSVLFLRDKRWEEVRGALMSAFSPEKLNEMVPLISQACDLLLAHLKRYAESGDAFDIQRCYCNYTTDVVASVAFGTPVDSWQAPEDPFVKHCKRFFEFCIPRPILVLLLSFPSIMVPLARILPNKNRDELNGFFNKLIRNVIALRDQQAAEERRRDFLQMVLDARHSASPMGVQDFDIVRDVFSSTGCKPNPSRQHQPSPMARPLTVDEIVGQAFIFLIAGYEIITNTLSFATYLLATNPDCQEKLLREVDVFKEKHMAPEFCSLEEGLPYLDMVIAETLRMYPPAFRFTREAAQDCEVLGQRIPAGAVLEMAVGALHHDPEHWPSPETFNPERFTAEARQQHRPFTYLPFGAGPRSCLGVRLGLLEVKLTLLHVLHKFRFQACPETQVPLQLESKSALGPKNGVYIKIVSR

[6] = molecular target: T3, Prostaglandin D2 receptor (Homo sapiens, UniProt Q13258)
T3 sequence (Q13258 whole entry): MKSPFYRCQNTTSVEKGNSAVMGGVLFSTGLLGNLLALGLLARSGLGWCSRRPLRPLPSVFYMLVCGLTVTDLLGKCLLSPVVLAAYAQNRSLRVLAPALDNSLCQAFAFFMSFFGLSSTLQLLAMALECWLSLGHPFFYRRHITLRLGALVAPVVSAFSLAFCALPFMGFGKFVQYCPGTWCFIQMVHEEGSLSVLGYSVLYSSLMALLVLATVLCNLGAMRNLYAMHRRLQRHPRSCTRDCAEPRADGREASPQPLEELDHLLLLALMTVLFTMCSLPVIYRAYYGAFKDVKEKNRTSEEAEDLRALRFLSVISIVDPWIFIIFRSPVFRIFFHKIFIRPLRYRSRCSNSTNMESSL

[7] = molecular target: T4, Alpha-2A adrenergic receptor [16-465] (Rattus norvegicus, UniProt P22909)
T4 construct: 16-465
T4 sequence (P22909 whole entry): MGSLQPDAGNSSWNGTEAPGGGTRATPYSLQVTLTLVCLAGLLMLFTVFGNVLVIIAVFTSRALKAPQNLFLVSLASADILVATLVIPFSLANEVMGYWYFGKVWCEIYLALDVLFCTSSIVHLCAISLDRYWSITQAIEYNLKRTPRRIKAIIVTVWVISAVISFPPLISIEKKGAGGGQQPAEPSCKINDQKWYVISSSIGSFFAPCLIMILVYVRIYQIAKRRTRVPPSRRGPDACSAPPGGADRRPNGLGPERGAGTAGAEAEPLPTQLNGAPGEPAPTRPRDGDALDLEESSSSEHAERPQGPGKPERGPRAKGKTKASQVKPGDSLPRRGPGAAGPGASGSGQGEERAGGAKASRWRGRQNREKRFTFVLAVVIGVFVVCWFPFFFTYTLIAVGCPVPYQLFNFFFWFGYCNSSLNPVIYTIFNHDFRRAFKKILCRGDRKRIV

[8] = molecular target: D(1A) dopamine receptor (Homo sapiens, UniProt P21728)
D(1A) dopamine receptor, sequence (P21728 whole entry): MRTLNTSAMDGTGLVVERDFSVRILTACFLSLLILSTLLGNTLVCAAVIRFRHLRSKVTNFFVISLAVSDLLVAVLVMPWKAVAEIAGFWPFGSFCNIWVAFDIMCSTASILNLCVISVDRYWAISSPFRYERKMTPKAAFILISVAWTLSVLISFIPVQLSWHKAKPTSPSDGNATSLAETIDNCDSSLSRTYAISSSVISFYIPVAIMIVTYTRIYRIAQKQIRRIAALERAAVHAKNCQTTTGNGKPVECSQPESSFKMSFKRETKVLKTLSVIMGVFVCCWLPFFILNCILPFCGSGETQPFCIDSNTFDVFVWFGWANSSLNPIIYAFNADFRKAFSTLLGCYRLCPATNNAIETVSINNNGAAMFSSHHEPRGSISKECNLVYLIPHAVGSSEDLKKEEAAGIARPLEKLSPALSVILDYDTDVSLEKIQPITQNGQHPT

[9] = molecular target: T5, 5-hydroxytryptamine receptor 1A (Homo sapiens, UniProt P08908)
T5 sequence (P08908 whole entry): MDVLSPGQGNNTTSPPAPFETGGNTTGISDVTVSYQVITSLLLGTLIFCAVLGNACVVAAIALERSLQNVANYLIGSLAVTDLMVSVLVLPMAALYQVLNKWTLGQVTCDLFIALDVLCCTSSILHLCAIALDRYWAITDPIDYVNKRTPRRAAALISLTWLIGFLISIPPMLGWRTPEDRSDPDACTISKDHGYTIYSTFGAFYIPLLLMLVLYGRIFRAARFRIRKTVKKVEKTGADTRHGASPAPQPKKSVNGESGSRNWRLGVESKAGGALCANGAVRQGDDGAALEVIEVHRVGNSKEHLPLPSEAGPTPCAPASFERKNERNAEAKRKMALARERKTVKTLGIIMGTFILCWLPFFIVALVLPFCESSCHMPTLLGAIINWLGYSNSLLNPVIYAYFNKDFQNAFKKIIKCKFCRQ

Measured: Ki

Platelet-activating factor receptor, sequence (P25105 whole entry): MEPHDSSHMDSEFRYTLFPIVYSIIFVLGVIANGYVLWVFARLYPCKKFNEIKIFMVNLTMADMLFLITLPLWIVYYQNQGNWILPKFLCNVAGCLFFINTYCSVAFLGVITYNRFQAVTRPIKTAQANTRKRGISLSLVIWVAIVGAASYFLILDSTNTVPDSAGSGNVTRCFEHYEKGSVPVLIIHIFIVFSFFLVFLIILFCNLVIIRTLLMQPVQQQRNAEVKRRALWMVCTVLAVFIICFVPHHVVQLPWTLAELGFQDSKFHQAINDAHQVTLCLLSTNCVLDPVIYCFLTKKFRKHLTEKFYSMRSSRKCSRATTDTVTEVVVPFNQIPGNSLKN
D(2) dopamine receptor, sequence (P14416 whole entry): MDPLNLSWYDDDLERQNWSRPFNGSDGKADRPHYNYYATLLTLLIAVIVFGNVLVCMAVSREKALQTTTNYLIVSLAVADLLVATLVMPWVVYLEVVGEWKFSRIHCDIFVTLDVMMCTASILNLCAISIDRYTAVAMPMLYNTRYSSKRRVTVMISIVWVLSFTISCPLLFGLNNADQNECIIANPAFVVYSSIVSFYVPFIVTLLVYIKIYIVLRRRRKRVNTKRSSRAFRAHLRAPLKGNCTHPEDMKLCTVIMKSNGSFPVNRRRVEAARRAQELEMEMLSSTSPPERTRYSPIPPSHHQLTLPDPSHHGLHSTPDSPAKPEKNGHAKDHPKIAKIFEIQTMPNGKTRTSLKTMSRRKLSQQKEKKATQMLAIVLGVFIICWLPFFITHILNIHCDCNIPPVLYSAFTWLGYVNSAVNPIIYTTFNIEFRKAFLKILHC

CC(C)C(=O)N(c1ccccc1)C1CC(C)N(C(=O)c2ccccc2)c2ccccc21 (stereo unspecified) [K117]
> 1000 nM: [1] | [2] | [3] | [4] | [5] | [6] | [7] | [8]

CCC(=O)N1c2ccccc2C(N(C(C)=O)c2ccccc2)CC1C (stereo unspecified) [K376]
> 1000 nM: [1] | [2] | [3] | [4] | [5] | [6] | [9] | [7] | [8]

CC1CC(N(C(=O)C2CC2)c2ccccc2)c2ccccc2N1C(=O)c1ccccc1 (stereo unspecified) [K604]
> 1000 nM: [1] | [2] | [3] | [4] | [5] | [6] | [9] | [7] | [8]
